Experimental data taken from patent US10428030B2, “Heterocycle derivatives and their use for the treatment of CNS disorders” (Trillium Therapeutics Inc., priority 2015, dated 2019).

Experiments:
Type in all cases: in vivo
[1] = test system: Frings audiogenic seizure-susceptible mice; assay: Frings audiogenic seizure (AGS)-susceptible mouse model
Text: Frings audiogenic seizure (AGS)-susceptible mice model examines the ability of an investigational drug to alter the onset and/or severity of seizures in a genetic mouse model of seizure susceptibility. Mice are genetically susceptible to sound-induced reflex seizures. Their seizure phenotype is characterized by wild running, loss of righting reflex, tonic flexion, and tonic extension in response to high-intensity sound stimulation. […] For example, the prototypical anticonvulsants phenytoin and ethosuximide display widely divergent clinical spectrums in humans, but are both active against sound-induced seizures in mice. Yet, the preclinical utility of this animal model rests in the useful information that can be obtained within a genetically susceptible model of seizures. Further, efficacy in this model provides proof of concept of brain bioavailability following systemic administration. The Frings AGS-susceptible mouse has a well-validated epilepsy phenotype that makes it particularly useful as a screening model. Beginning at about 21 days of age, Frings AGS-susceptible mice display prominent seizure activity in response to a high-intensity sound stimulus. They then remain susceptible to sound throughout their life. This is in stark contrast to the DBA2J AGS-susceptible mouse, which is the other common model of sound-induced seizures, as DBA2J mice are only susceptible to sound-induced seizures during a narrow developmental window (post-natal days 18-30). Thus, the Frings AGS-susceptible mouse seizures respond to a wide range of CNS-active drugs and display sound-induced seizures throughout their lifetime. In this regard, Frings AGS-susceptible mice are a highly useful screening model for the identification and characterization of compounds potentially effective against inherited epilepsy.
Male and female Frings audiogenic seizure-susceptible mice (18-25 g) are maintained in an in-house colony at the University of Utah. For each screening test, groups of 8 mice each are treated i.p. with varying doses of the investigational compound. At the time of peak effect as determined in the MES test (Test 4 in CF1 mice), individual mice are placed in a round plexiglass jar (diameter, 15 cm, height, 18 cm) and exposed to a sound stimulus of 110 decibels (11 KHz) delivered for 20 sec. Mice are observed for 25 sec for the presence or absence of hind limb tonic extension. Mice not displaying hind limb tonic extension are considered protected. The severity of a seizure may also be quantitated by assigning a numerical score to the observed response, e.g. no response—0; wild running for <10 sec—1; wild running for >10 sec—2; clonic seizure—3; forelimb extension/hind limb flexion—4; tonic seizure—5.

[2] = test system: hippocampal kindled rat; assay: Hippocampal kindled rat model (focal seizures); conditions: <300 mg/kg i.p., vs vehicle controls
Text: Hippocampal Kindled Rat Test is designed to quantify the anticonvulsant effects of a test compound in the kindled rat model. Rats treated by i.p. injection.
The Kindled Rat is a model of temporal lobe epilepsy, which is the most common and drug-resistant type of adult focal epilepsy (Morimoto et al., 2004). […] This acquired hyper-responsiveness is called kindling and results not only in increased seizure responses but also in an elongation of the after-discharge duration seen on an EEC recording. Electrodes are implanted into the hippocampus of anesthetized rats, which are then allowed to recover for one week. […] At each time point, the behavioral seizure score (BSS) and after-discharge duration (ADD) is recorded. The BSS's are scored according to the following criteria (Racine, Electroencephalogr Clin Neurophysiol 1972, 32:281-94): Stage 1—mouth and facial clonus; Stage 2—stage 1 plus head nodding; Stage 3—stage 2 plus forelimb clonus; Stage 4—stage 3 plus rearing; and Stage 5—stage 4 plus repeated rearing and falling.
The afterdischarge threshold (ADT) can also be measured in the kindled rat. […] The individual rat ADT is then determined at varying times (i.e., 0.25, 1, 2, and 4 hr) after drug administration.

[3] = test system: male CF-1 mouse; assay: Mouse formalin test (pain); conditions: 41 mg/kg i.p.; most pronounced in second (late) phase
Description: The formalin test is performed according to the method of Tjolsen et al. Pain, 1992. 51(1). An injection of 0.5% formalin (Sigma) is made into the planter region of the right hind paw of an adult (26-30 g) male CF-1 mouse. Sub-dermal formalin injection elicits a distinct behavioral profile characterized by the mouse licking the affected paw. The behavior is characteristically biphasic in nature. For example, immediately following the injection the mouse licks the paw intensely for approximately 10 min. This is referred to as phase 1 (or, the acute phase) and is followed by a brief latent period (<5 minutes) where there is little behavioral activity. A more prolonged period of about 20-30 min of activity then ensues, which constitutes phase 2 (or, the inflammatory phase). […] The cumulative length of licking for each 2-min time period is measured. […] The area under the curve (AUG) is calculated for both the acute and inflammatory phases of the licking response for individual animals in both the test and control groups. The percent of control AUG for drug-treated animal groups is determined using the Graph-Pad Prism Version 3.03. The total AUG for each phase of the test group is also calculated and converted to percentage of total AUG of control for each phase. The average and S.E.M. for both the drug treated and control percentages are calculated and tested for significant difference.

O=C1COc2cc(OCc3ccc(OC(F)F)cc3)ccc2N1 [Compound I(B)]
ED50 ([1]; Mus musculus, ip, sound-induced seizures): 13 ± 2 mg/kg
effect on AGS ([1]; i.p.): dose-dependently blocks AGS
suppression of fully kindled (stage 5) seizures [2]: dose related suppression of fully kindled (stage 5) seizures
number of paw licks [3]: significant decrease in the number of paw licks
